Assay results taken from ChEMBL document CHEMBL1156106 (J Med Chem, 2009).
pKi: −log10 of the molar value.

Legend:
Rattus norvegicus [1] = assay: Effect on behavioural activity in rat assessed as cocaine-induced lever response at 5 mg/kg, ip pretreated with cocaine for 30 mins by drug-discrimination studies; type: functional; conditions: route intraperitoneal
Rattus norvegicus [2] = assay: Effect on behavioural activity in rat assessed as cocaine-induced lever response at 10 mg/kg, po pretreated with cocaine for 90 mins by drug-discrimination studies; type: functional
Rattus norvegicus [3] = assay: Effect on behavioural activity in rat assessed as cocaine-induced lever response at 2.5 mg/kg, po pretreated with cocaine for 90 mins by drug-discrimination studies; type: functional
Rattus norvegicus [4] = assay: Effect on behavioural activity in rat assessed as cocaine-induced lever response at 5 mg/kg, po pretreated with cocaine for 360 mins by drug-discrimination studies; type: functional
Rattus norvegicus [5] = assay: Effect on behavioural activity in rat assessed as cocaine-induced lever response at 25 mg/kg, po pretreated with cocaine for 360 mins by drug-discrimination studies; type: functional
Mus musculus [6] = assay: Antidepressant activity in ip dosed mouse assessed as stimulation of locomotor activity relative to cocaine; type: functional
Rattus norvegicus [7] = assay: Effect on behavioural activity in rat assessed as cocaine-induced lever response at 5 mg/kg, po pretreated with cocaine for 45 mins by drug-discrimination studies; type: functional
Rattus norvegicus [8] = assay: Effect on behavioural activity in rat assessed as cocaine-induced lever response at 25 mg/kg, po pretreated with cocaine for 180 mins by drug-discrimination studies; type: functional
Mus musculus [9] = assay: Antidepressant activity in ip dosed mouse assessed as time to reach peak stimulation of locomotor activity; type: functional
Rattus norvegicus [10] = assay: Effect on behavioural activity in rat assessed as cocaine-induced lever response at 2.5 mg/kg, po pretreated with cocaine for 180 mins by drug-discrimination studies; type: functional
Rattus norvegicus [11] = assay: Effect on behavioural activity in rat assessed as cocaine-induced lever response at 25 mg/kg, po pretreated with cocaine for 90 mins by drug-discrimination studies; type: functional
Rattus norvegicus [12] = assay: Effect on behavioural activity in rat assessed as cocaine-induced lever response at 5 mg/kg, po pretreated with cocaine for 180 mins by drug-discrimination studies; type: functional
Rattus norvegicus [13] = assay: Effect on behavioural activity in rat assessed as cocaine-induced lever response at 10 mg/kg, ip pretreated with cocaine for 30 mins by drug-discrimination studies; type: functional; conditions: route intraperitoneal
Rattus norvegicus [14] = assay: Effect on behavioural activity in rat assessed as cocaine-induced lever response at 10 mg/kg, po pretreated with cocaine for 45 mins by drug-discrimination studies; type: functional
Rattus norvegicus [15] = assay: Effect on behavioural activity in po dosed rat assessed as cocaine-induced lever response pretreated with cocaine by drug-discrimination studies; type: functional
Rattus norvegicus [16] = assay: Effect on behavioural activity in rat assessed as cocaine-induced lever response at 10 mg/kg, po pretreated with cocaine for 180 mins by drug-discrimination studies; type: functional
Rattus norvegicus [17] = assay: Effect on behavioural activity in rat assessed as cocaine-induced lever response at 2.5 mg/kg, po pretreated with cocaine for 45 mins by drug-discrimination studies; type: functional
Rattus norvegicus [18] = assay: Effect on behavioural activity in rat assessed as cocaine-induced lever response at 2.5 mg/kg, ip pretreated with cocaine for 30 mins by drug-discrimination studies; type: functional; conditions: route intraperitoneal
Rattus norvegicus [19] = assay: Effect on behavioural activity in rat assessed as cocaine-induced lever response at 10 mg/kg, po pretreated with cocaine for 360 mins by drug-discrimination studies; type: functional
Mus musculus [20] = assay: Antidepressant activity in ip dosed mouse assessed as duration of locomotor activity; type: functional
Rattus norvegicus [21] = assay: Effect on behavioural activity in rat assessed as cocaine-induced lever response at 25 mg/kg, ip pretreated with cocaine for 30 mins by drug-discrimination studies; type: functional; conditions: route intraperitoneal
Rattus norvegicus [22] = assay: Effect on behavioural activity in rat assessed as cocaine-induced lever response at 5 mg/kg, po pretreated with cocaine for 90 mins by drug-discrimination studies; type: functional
Rattus norvegicus [23] = assay: Effect on behavioural activity in rat assessed as cocaine-induced lever response at 1 mg/kg, ip pretreated with cocaine for 30 mins by drug-discrimination studies; type: functional; conditions: route intraperitoneal
Rattus norvegicus [24] = assay: Effect on behavioural activity in rat assessed as cocaine-induced lever response at 2.5 mg/kg, po pretreated with cocaine for 360 mins by drug-discrimination studies; type: functional
Mus musculus [25] = assay: Antidepressant activity in ip dosed mouse assessed as stimulation of locomotor activity; type: functional
Rattus norvegicus [26] = assay: Effect on behavioural activity in ip dosed rat assessed as cocaine-induced lever response pretreated with cocaine by drug-discrimination studies; type: functional
Rattus norvegicus [27] = assay: Effect on behavioural activity in rat assessed as cocaine-induced lever response at 25 mg/kg, po pretreated with cocaine for 45 mins by drug-discrimination studies; type: functional
Rattus norvegicus [28] = assay: Effect on behavioural activity in rat assessed as cocaine-induced lever response at 50 mg/kg, po pretreated with cocaine for 180 mins by drug-discrimination studies; type: functional
Rattus norvegicus [29] = assay: Effect on behavioural activity in rat assessed as cocaine-induced lever response at 50 mg/kg, po pretreated with cocaine for 360 mins by drug-discrimination studies; type: functional
Rattus norvegicus [30] = assay: Effect on behavioural activity in rat assessed as cocaine-induced lever response at 50 mg/kg, po pretreated with cocaine for 45 mins by drug-discrimination studies; type: functional
[31] = molecular target: Sodium-dependent serotonin transporter (Homo sapiens, UniProt P31645); assay: biochemical; type: cell-based, HEK293
Sodium-dependent serotonin transporter, sequence (P31645 whole entry): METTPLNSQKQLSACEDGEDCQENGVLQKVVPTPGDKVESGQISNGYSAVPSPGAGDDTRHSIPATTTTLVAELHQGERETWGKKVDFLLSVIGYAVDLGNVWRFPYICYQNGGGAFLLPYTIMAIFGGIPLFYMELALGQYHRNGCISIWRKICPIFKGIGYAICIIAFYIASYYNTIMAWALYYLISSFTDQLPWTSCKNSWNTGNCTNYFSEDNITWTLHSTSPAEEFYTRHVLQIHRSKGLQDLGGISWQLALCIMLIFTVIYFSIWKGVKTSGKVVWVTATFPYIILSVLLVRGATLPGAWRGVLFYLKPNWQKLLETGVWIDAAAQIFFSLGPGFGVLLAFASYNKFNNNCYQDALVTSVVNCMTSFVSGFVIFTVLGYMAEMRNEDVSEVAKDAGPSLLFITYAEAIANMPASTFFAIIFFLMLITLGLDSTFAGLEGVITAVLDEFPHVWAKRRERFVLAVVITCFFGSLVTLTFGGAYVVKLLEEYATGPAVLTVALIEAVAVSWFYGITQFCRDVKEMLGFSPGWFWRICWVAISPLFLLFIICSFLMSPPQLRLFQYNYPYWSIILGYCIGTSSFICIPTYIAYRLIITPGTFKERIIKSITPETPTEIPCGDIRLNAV

Rattus norvegicus [32] = assay: Effect on behavioural activity in rat assessed as cocaine-induced lever response at 25 mg/kg, ip pretreated with cocaine for 15 mins by drug-discrimination studies; type: functional; conditions: route intraperitoneal
Rattus norvegicus [33] = assay: Effect on behavioural activity in rat assessed as cocaine-induced lever response at 10 mg/kg, ip pretreated with cocaine for 15 mins by drug-discrimination studies; type: functional; conditions: route intraperitoneal
Rattus norvegicus [34] = assay: Effect on behavioural activity in rat assessed as cocaine-induced lever response at 50 mg/kg, po pretreated with cocaine for 90 mins by drug-discrimination studies; type: functional
Rattus norvegicus [35] = assay: Effect on behavioural activity in rat assessed as cocaine-induced lever response at 2.5 mg/kg, ip pretreated with cocaine for 15 mins by drug-discrimination studies; type: functional; conditions: route intraperitoneal
Rattus norvegicus [36] = assay: Effect on behavioural activity in rat assessed as cocaine-induced lever response at 5 mg/kg, ip pretreated with cocaine for 15 mins by drug-discrimination studies; type: functional; conditions: route intraperitoneal
[37] = molecular target: Sodium-dependent noradrenaline transporter (Homo sapiens, UniProt P23975); assay: Displacement of [125I]RTI55 from cloned human NET expressed in HEK293 cells; type: cell-based
Sodium-dependent noradrenaline transporter, sequence (P23975 whole entry): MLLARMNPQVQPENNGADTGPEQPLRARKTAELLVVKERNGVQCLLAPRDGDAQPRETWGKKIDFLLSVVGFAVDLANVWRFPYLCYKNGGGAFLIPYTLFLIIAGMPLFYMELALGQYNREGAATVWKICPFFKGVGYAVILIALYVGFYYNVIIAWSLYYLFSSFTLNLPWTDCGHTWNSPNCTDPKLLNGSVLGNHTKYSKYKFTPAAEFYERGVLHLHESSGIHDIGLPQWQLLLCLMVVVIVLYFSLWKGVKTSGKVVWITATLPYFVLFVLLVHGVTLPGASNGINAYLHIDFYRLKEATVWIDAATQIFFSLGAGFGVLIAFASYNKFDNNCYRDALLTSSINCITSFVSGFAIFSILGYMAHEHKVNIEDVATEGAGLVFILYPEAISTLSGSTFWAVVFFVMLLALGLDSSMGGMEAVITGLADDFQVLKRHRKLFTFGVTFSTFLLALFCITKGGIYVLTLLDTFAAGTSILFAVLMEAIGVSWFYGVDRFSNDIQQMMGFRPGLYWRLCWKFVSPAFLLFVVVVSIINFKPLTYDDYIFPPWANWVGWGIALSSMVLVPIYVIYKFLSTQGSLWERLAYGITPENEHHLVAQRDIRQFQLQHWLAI

Rattus norvegicus [38] = assay: Effect on behavioural activity in rat assessed as cocaine-induced lever response at 100 mg/kg, po pretreated with cocaine for 90 mins by drug-discrimination studies; type: functional
Rattus norvegicus [39] = assay: Effect on behavioural activity in rat assessed as cocaine-induced lever response at 100 mg/kg, po pretreated with cocaine for 45 mins by drug-discrimination studies; type: functional
Rattus norvegicus [40] = assay: Effect on behavioural activity in rat assessed as cocaine-induced lever response at 100 mg/kg, po pretreated with cocaine for 180 mins by drug-discrimination studies; type: functional
Rattus norvegicus [41] = assay: Effect on behavioural activity in rat assessed as cocaine-induced lever response at 100 mg/kg, po pretreated with cocaine for 360 mins by drug-discrimination studies; type: functional

Compound	Activity (Rattus norvegicus [2])	Activity (Rattus norvegicus [4])	Activity (Rattus norvegicus [5])	Activity (Mus musculus [6])	Activity (Rattus norvegicus [7])	Activity (Rattus norvegicus [8])	Time to peak locomotor stimulation (Mus musculus [9])	Activity (Rattus norvegicus [11])	Activity (Rattus norvegicus [12])	Activity (Rattus norvegicus [14])	ED50 (Rattus norvegicus [15])	Activity (Rattus norvegicus [16])	Activity (Rattus norvegicus [17])	Time (Mus musculus [20])	Activity (Rattus norvegicus [22])	ED50 (Mus musculus [25])	ED50 (Rattus norvegicus [26])	Activity (Rattus norvegicus [27])	Activity (Rattus norvegicus [28])	Activity (Rattus norvegicus [29])	also measured
CCCC(NC(C)(C)C)C(=O)c1ccc(Cl)c(Cl)c1 (stereo not given)	0%	0%	0%	93%	0%	17%	0 min	84%	0%	33%	22.8 mg/kg	5%	17%	470 min	13%	38 mg/kg	3.9 mg/kg	58%			Activity (Rattus norvegicus [1]): 33.3%; Activity (Rattus norvegicus [3]): 0%; Activity (Rattus norvegicus [10]): 0%; Activity (Rattus norvegicus [13]): 33.3%; Activity (Rattus norvegicus [18]): 41.8%; Activity (Rattus norvegicus [19]): 0%; Activity (Rattus norvegicus [21]): 100%; Activity (Rattus norvegicus [23]): 0%; Activity (Rattus norvegicus [24]): 0%
CC(NC1CCCC1)C(=O)c1cccc(Cl)c1 (stereo not given)	33%	0%	34%	107%	50%		0 min	67%	0%	60%	6.6 mg/kg	0%	17%	330 min	0%	12.3 mg/kg	10.9 mg/kg	67%	33%	16%	Activity (Rattus norvegicus [1]): 0%; Activity (Rattus norvegicus [13]): 66.2%; Activity (Rattus norvegicus [18]): 23.9%; Activity (Rattus norvegicus [21]): 83.4%; Activity (Rattus norvegicus [30]): 100%; pKi [31]: < 5.00; Activity (Rattus norvegicus [23]): 0.9%
CC(NC(C)(C)C)C(=O)c1ccccc1 (stereo not given)	0%	0%	34%	95%	0%	20%	0 min	33%	33%	0%	25.2 mg/kg	3%	6%	120 min	0%	11.2 mg/kg	1 mg/kg	51%	50%	4%	Activity (Rattus norvegicus [32]): 83.4%; Activity (Rattus norvegicus [3]): 1%; Activity (Rattus norvegicus [33]): 83.3%; Activity (Rattus norvegicus [10]): 0%; Activity (Rattus norvegicus [34]): 33%; Activity (Rattus norvegicus [35]): 16%; Activity (Rattus norvegicus [36]): 32.8%; Activity (Rattus norvegicus [19]): 0%; Activity (Rattus norvegicus [30]): 83%; pKi [31]: < 5.00; Activity (Rattus norvegicus [24]): 0%
CC(NC(C)(C)C)C(=O)c1cccc(F)c1 (stereo not given)	0%	0%	0%	80%	17%	0%	0 min	16%	0%	17%	25.3 mg/kg	33%		150 min	0%	17.5 mg/kg	11.6 mg/kg	49%	18%	0%	Activity (Rattus norvegicus [32]): 100%; pKi [37]: < 5.00; Activity (Rattus norvegicus [33]): 50.2%; Activity (Rattus norvegicus [38]): 75%; Activity (Rattus norvegicus [34]): 33%; Activity (Rattus norvegicus [35]): 17.6%; Activity (Rattus norvegicus [36]): 0%; Activity (Rattus norvegicus [39]): 95%; Activity (Rattus norvegicus [40]): 83%; Activity (Rattus norvegicus [30]): 67%; pKi [31]: < 5.00; Activity (Rattus norvegicus [41]): 50%
